The target of experiment [1] is T1, RCC356 (Homo sapiens, UniProt Q8TCB6).
T1 construct: expressed in transfected cells; host or cells: Hek293 cells, transient transfection with lipofectamine 2000
T1 sequence (Q8TCB6 1-318): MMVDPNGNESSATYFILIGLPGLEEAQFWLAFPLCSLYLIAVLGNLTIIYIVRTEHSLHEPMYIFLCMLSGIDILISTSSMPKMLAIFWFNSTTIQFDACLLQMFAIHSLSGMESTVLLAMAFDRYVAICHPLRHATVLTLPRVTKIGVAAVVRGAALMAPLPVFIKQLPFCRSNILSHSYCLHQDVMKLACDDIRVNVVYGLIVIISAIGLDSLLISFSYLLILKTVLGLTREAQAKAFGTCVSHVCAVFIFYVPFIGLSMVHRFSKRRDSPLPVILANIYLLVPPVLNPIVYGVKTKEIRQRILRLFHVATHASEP
Kind of experiment: Concentration-response analysis of odorants on Hek293 cells overexpressing RCC356 polypeptide, CRE-luciferase reporter (Dual-Glo). The class given is cell-based. To be noted: for EC50: 0.1 μM to 1 mM, CRE-luciferase, read-out: Ec50 of RCC356 activation. The method, then: (§1) To further validate hits found during screenings of 80 odorants on RCC356 overexpressing-Hek293 cells, concentration-response analyses have been performed. Hek293 cells were grown in MEM supplemented with decomplemented FBS at 37° C. under 5% CO2 and 90% humidity. Two days before screening, cells were plated onto 96-well plates (PDL coated plates, Becton-Dickinson). The day after, cells were transfected with a plasmid encoding RCC356 polypeptide along with 2 plasmides encoding firefly luciferase and renilla luciferase respectively. Firefly transcription was driven by a minimum promoter including the CREB-response element (CRE), whereas renilla luciferase was driven by CMV promoter, a strong constitutive promoter. Transfection was performed using lipofectamine 2000 reagent (Invitrogen). Transfected cells were let under standard culture conditions for a further 24 hours, and then process for functional assay.
First, tested odorants (isovaleric, valeric, propionic, hexanoic, heptanoic, caprilic and pelargonic acids) were dissolved as 1M solutions in DMSO. They were then plated onto 96-well plates at different concentrations ranging from 0.1 μM to 1 mM in HBSS (Cambrex). DMSO represented thereby less than 1% (v/v) of the odorant solutions. Positive controls such as forskolin were included in odorant plates. Forskolin activates production of cAMP that in turn, through binding to CREB transcription factor triggers production of firefly luciferase, the reporter gene of the system. Detected luciferase activity in each well could be thereby expressed as a percent of forskolin response, allowing standardization thereon.
(§2) Functional assay was performed using Dual-Glo luciferase assay Kit according to manufacturer instructions (Promega).
Background: A reporter such as luciferase makes a cellular process visible.

Experiment [2] has as its target T1, RCC356. As to the kind of experiment: Screening of 80 odorants on RCC356 overexpressed in Hek293 cells, CRE-luciferase reporter (Dual-Glo). The note with it: Hek293 overexpressing RCC356; for RCC356 activation in odorant screening (luciferase activity as percent of forskolin response): odorants plated as 200 μM solutions in HBSS, two independent screenings; for hit found in both independent screenings: two independent screenings of 80 odorants. In kind it is cell-based. The protocol:
as §1, with “Hek293” for “To further validate hits found during screenings of 80 odorants on RCC356 overexpressing-Hek293 cells, concentration-response analyses have been performed. Hek293”
Odorants were dissolved as 1M solutions in DMSO. They were then plated onto 96-well plates as 200 μM solutions in HBSS (Cambrex). DMSO represented thereby less than 1% (v/v) of the odorant solutions. Positive controls such as forskolin were included in odorant plates. Forskolin activates production of cAMP that in turn, through binding to CREB transcription factor triggers production of firefly luciferase, the reporter gene of the system. Detected luciferase activity in each well could be thereby expressed as a percent of forskolin response, allowing standardization thereon.
as §2

As a reminder, the EC50 is the midpoint of the concentration-response curve.

`CCCCC(=O)O` [valeric acid]: the EC50 in experiment [1] turned out to be 97 µM. Besides, in experiment [2], the “RCC356 activation in odorant screening (luciferase activity as percent of forskolin response)” value is listed as “seemed to lead to RCC356 activation” and the “hit found in both independent screenings” value is on record as “found in both screening”.
Consider `CCCCCCC(=O)O` [oenanthylic acid], for which, in experiment [1], the EC50 was found to be 260 µM. Further, in experiment [2], the “RCC356 activation in odorant screening (luciferase activity as percent of forskolin response)” value is recorded as “seemed to lead to RCC356 activation”.
Consider `CCCCCCCC(=O)O` [caprilic acid, caprylic acid], for which the 50% effective concentration (EC50) in experiment [1] turned out to be 329 µM. For the same molecule, the “RCC356 activation in odorant screening (luciferase activity as percent of forskolin response)” value in experiment [2] was “seemed to lead to RCC356 activation”.
With `C=CCCCC(=O)O` [5-hexenoic acid], in experiment [1], the concentration for a half-maximal effect (EC50) came out at 485 µM.
As to `O=C(O)C1CCCCC1` [hexahydrobenzoic acid], the concentration giving a half-maximal response (EC50) in experiment [1] amounted to 104 µM.
With `CCC(=O)O` [propionic acid], in experiment [2], the “RCC356 activation in odorant screening (luciferase activity as percent of forskolin response)” value was “seemed to lead to RCC356 activation”.
With `CC(C)CC(=O)O` [isovaleric acid], the EC50 in experiment [1] was 25 µM. Moreover, the “efficiency of ligand on RCC356 activation” value in experiment [1] (percent of forskolin response (FIG. 3A)) is listed as “most efficient ligand”. Besides, in experiment [2], the “RCC356 activation in odorant screening (luciferase activity as percent of forskolin response)” value was “seemed to lead to RCC356 activation” and the “hit found in both independent screenings” value was “found in both screening”.
On to `CCCCCCCCC(=O)O` [pelargonic acid], for which, in experiment [1], the EC50 is 643 µM. In experiment [2], the “RCC356 activation in odorant screening (luciferase activity as percent of forskolin response)” value is given as “seemed to lead to RCC356 activation”.
For `CCCCCC(=O)O` [caproic acid], the EC50 in experiment [1] was determined as 91 µM. Moreover, in experiment [2], the “RCC356 activation in odorant screening (luciferase activity as percent of forskolin response)” value is on record as “seemed to lead to RCC356 activation”.

Values taken from patent US8008023B2, “Natural ligand of G protein coupled receptor RCC356 and uses thereof” (Chemcom S.A., priority 2005, dated 2011).
